Experimental data from PubChem BioAssay (NCI).
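48-hour exposure; five concentrations; linearly interpolated endpoints. At the GI50, growth is halved. TGI denotes the concentration required for complete inhibition of growth.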

Assays:
Assay in all cases: NCI anticancer screen, dose series, 48 h
[1] = tested on: IGROV1 ovarian
[2] = tested on: TK-10 renal
[3] = tested on: SW-620 colon
[4] = tested on: A498 renal
[5] = tested on: OVCAR-8 ovarian
[6] = tested on: SF-295 CNS
[7] = tested on: COLO 205 colon
[8] = tested on: M14 melanoma
[9] = tested on: DU-145 prostate

Compound	TGI [1] [µM]	TGI [2] [µM]	TGI [3] [µM]	TGI [4] [µM]	TGI [5] [µM]	TGI [6] [µM]	TGI [7] [µM]	TGI [8] [µM]	GI50 [1] [µM]	GI50 [2] [µM]	GI50 [9] [µM]	GI50 [3] [µM]	GI50 [5] [µM]	GI50 [6] [µM]	GI50 [7] [µM]	GI50 [8] [µM]	TGI [9] [µM]	GI50 [4] [µM]
COC1(C)C(=O)N2C1N(C(=O)OCc1ccccc1)CC2(C)C (stereo not given)	> 100	> 100	> 100	> 100	> 100	> 100	> 100	> 100										
Nc1cc2cccc[n+]2c2cccc(Cl)c12									69.9	94.7	46.4	34.2	24.1	33.4	15.5	36.4		
O=C(CCc1nc(=S)[nH][nH]1)Nc1cccc(C(F)(F)F)c1	> 100	> 100	28.5	> 100	> 100	> 100	> 100	> 100										
CC1=NN(C(=O)c2ccc(Cl)cc2)C(=O)/C1=C/c1ccc(Cl)cc1	> 100	> 100	> 100	> 100	> 100	> 100	> 100	> 100										
COCCOCOC(C)(C)[C@H](CCOC(C)=O)O[Si](c1ccccc1)(c1ccccc1)C(C)(C)C	> 100	87.1	> 100	68.4	75.2	55.5	13.7	49.4										
Cc1ccc(NC(=O)CC2SC(N)=NC2=O)cc1C (stereo not given)	> 100	> 100	> 100		> 100	> 100	> 100	> 100										
COc1ccc2c(c1)C(=O)c1c-2n(CCCN)c(=O)c2cc([N+](=O)[O-])ccc12	0.192	10	0.146	< 0.01		12.2		< 0.01	< 0.01	3.33	< 0.01	< 0.01		< 0.01		< 0.01	0.0193	< 0.01
CC1=C(Cl)C[C@@H](/C(C)=C\Cl)O[C@@]1(O)C(Br)Br	> 100	> 100	> 100	98.4	> 100	> 100	88.5	67.7									49.9	
CN1CCc2c1nc(-c1cccnc1)c1c2N(C)CC1	> 100	> 100	> 100	> 100	> 100	> 100	> 100	> 100										
Cc1nc2c(sc(=S)n2-c2ccccc2)c2nc3ccccc3n12	> 100	> 100			> 100	> 100	> 100	> 100										
COc1ccc(Cc2nc3ccccc3s2)cc1OC	35.7	84.7	32.7	49.5	30.9	28.9	27.7	31.6										
NC(=O)C12CC3CC(CC(Br)(C3)C1)C2	> 100	> 100	> 100	> 100	> 100	> 100		> 100										
COc1cc(/C=C\c2ccncc2)cc(OC)c1OC	> 100	> 100	> 100	> 100	> 100	> 100	> 100	> 100										
CC(=O)NNc1nc(C)c(C(=O)/C=C/c2ccc(/C=C/C(=O)c3sc(NNC(C)=O)nc3C)cc2)s1	> 100	> 100	> 100		> 100	> 100	> 100	> 100										
Nc1ccc(C(=O)N/C(=C\c2cccc([N+](=O)[O-])c2)c2nc3ccc(Cl)cc3[nH]2)cc1	> 100	> 100	> 100		> 100	> 100	> 100	> 100										
N.N.N.N.N.O=S(=O)([O-])C(F)(F)F.O=S(=O)([O-])C(F)(F)F.[Os+8]	64.1	95.4	41.4	29.5	86.7	62.8	25.4	28.7	21.3	33		8.48	13.5	8.07	10.9	14.2		12
COc1cc2c(cc1-c1coc3cc(OCC=C(C)C)ccc3c1=O)OCO2	> 100	> 100	> 100	> 100		> 100	> 100	> 100									> 100	
